Patent US20230279379A1, “METHODS AND MICROFLUIDIC DEVICE FOR PRODUCING EXTRACELLULAR VESICLES” (THE BOARD OF TRUSTEES OF THE UNIVERSITY OF ILLINOIS, priority 2022, published 2023)

Test system: Primary human MSCs
Test: EV secretion per cell from MSCs on hydrogel substrates, nanoparticle tracking analysis
Assay type: cell-based
Conditions: 5 μM CK869; hydrogels
Method: Cell Seeding on Hydrogels. Hydrogel discs were placed in ultra-low binding polystyrene well plates (Corning) to ensure cells attach to hydrogels and not the plate surface. Hydrogels were washed with Hank's buffered salt solution (HBSS, Thermo Fisher Scientific) for at least 3 days before seeding cells. Cells were seeded at a low density (25 cells/mm^2). After seeding, hydrogels were washed thoroughly to remove unattached cells. Drug treatments of 3 μM MnCl2 (Thermo Fisher Scientific), 200 nM EMD 121974 sold under the tradename Cilengitide® (Cayman) and 5 μM CK869 (Cayman) were applied during and after cell adhesion to substrates. To evaluate the number of live cells seeded on substrates, cells were detached by incubating with a natural enzyme mixture with proteolytic and collagenolytic enzyme activity sold under the tradename ACCUTASE® Cell Detachment Solution (Innovative Cell Technologies, Inc.) for 10 minute at 37° C. Cells were then washed by centrifugation and directly added to HBSS containing calcein AM (1:2000; Biotium), ethidium bromide (1:2000; Thermo Fisher Scientific), and a predefined number of allophycocyanin (APC) beads (BD). After incubation at room temperature (RT) for 10 minutes, the samples were analyzed for live and dead cell number by flow cytometry.
Particle Size and Number Characterization. Particle size and number were obtained using Nanoparticle Tracking Analysis 3.2 (NTA) via NanoSight NS300 (Malvern) using a 405 nm laser. Samples were introduced by syringe pump at a rate 100 μL/min. Three thirty-second videos were acquired using camera level 14 followed by detection threshold 7. Camera focus, shutter, blur, minimum track length, minimum expected particle size and maximum jump length were set automatically by the software. Samples were diluted as needed to maintain particles per video from 100-2000. To ensure specificity, all samples were tested as compared to appropriate blank conditions.
To test the effect of substrate mechanics on EV secretion from MSCs, hydrogel substrates were engineered which were composed of alginate polymer conjugated with the cell adhesion peptide Arg-Gly-Asp (RGD) that binds primarily to αvβ3 and α5β1 integrins. Alginate-RGD hydrogels can be formed either covalently through adipic acid dihydrazide or physically through divalent cations, resulting in elastic or stress-relaxing hydrogels, respectively. For both types of hydrogels, elastic modulus (Young's modulus, E) of ˜3 kPa ‘soft’ and E ˜20 kPa ‘stiff’ were considered values that represent a physiologically relevant range of substrate elasticity for MSC mechanosensing, while E is ˜0.1 GPa for conventional plastic substrates. Primary human bone marrow MSCs were allowed to adhere to substrates for 24 hours followed by washout and collection of the serum-free conditioned medium from MSCs after 24 hours. After centrifugation of the medium at 10,000 g to remove cell, apoptotic, and larger particle fractions, particles remaining in the medium were analyzed by nanoparticle tracking analysis and normalized to the number of live adhered cells counted by flow cytometry (see Methods). MSCs were seeded at low density (˜25 cells/mm^2) to avoid potential effects from cell-cell interactions. […] Thus, focus was placed on the EVs remaining in the supernatant after the 10,000 g centrifugation. For these EVs, the particle size distribution remained similar across different substrates with median diameter ˜120 nm (FIG. 1B). […] Moreover, EVs from different substrates expressed similar levels of late endosomal markers CD63 and CD9. Importantly, levels of ribosomal RNA (rRNA) in particle preparations were similar across hydrogels or plastic substrates, and rRNA as a percentage of total RNA was lower than that found in untreated MSCs or particles derived from H2O2-treated apoptotic MSCs, ruling out apoptosis as a potential factor of increased EV secretion on the soft hydrogel. […]

COc1ccc(N2C(=O)CSC2c2cccc(Br)c2)c(OC)c1 (stereo not shown) [CK869]
EV secretion compared to DMSO: significantly increased EV secretion
